# “Also recorded” adds a separate entry of the source.
# How the values were obtained:
# [1] = test system: patients enduring stressful life situations; assay: Example 5: inducing resilience in patients enduring stressful life situations; format: in vivo, human; details: 900 mg oral (300 mg TID) daily; example in present tense
# ventral striatum (VS) = assay: fMRI during the Incentive Flanker Task: activation to reward anticipation; format: in vivo, human; details: baseline to primary outcome visit; ezogabine compared to placebo; n=40
# Excerpt: Following screening (Day −28 to Day −2), screening data was reviewed by the site PI to determine subject eligibility. Subjects who met all inclusion criteria and none of the exclusion criteria entered into the study. All eligible participants returned to the clinics to complete the baseline assessments and undergo randomization (Day 0, Baseline). Baseline assessments included clinical evaluations, the PRT and fMRI scanning (details below). […] Randomization was balanced by using randomly permuted blocks and stratified by center. […]
# At each visit, participants completed self-report and clinician-administered rating scales performed by trained raters, and met with a study psychiatrist who assessed suicidal thinking or behavior, adverse events (AE), and changes in concomitant medications. […]
# The primary outcome measure of the study was a change in activation within the bilateral ventral striatum (VS, FIG. 1) from baseline (Study Visit 0) to the primary outcome visit (Study Visit 5) as measured by functional magnetic resonance imaging (fMRI) during the Incentive Flanker Task (IFT), a variant of the monetary incentive delay task (MID) as described above. […] Additional secondary outcome included change in behavioral symptoms of anhedonia through a computer-based task, the Probabilistic Reward Task (PRT), and global illness improvement and severity evaluated through changes in CGI-I and CGI-S scores. […]
# [2] = test system: patients with treatment resistant depression (TRD); assay: Sub-group analysis of the clinical trial: patients with treatment resistant depression (TRD), MADRS
# Excerpt: Treatment resistance is defined as at least one probable treatment failure as captured and by the Antidepressant Treatment form (AHTF).
# P-glycoprotein = P-glycoprotein (Homo sapiens, UniProt P08183); details: cited from earlier work
# [3] = test system: patients diagnosed with PTSD; assay: Example 4: treatment of patients with PTSD; format: in vivo, human; details: 900 mg oral (300 mg TID) daily; example in present tense
# [4] = test system: patients with major depressive disorder (MDD) or persistent depressive disorder (PDD); assay: Multi-center, double-blind, randomized, placebo-controlled clinical trial of ezogabine (clinical rating scales); format: in vivo, human
# Excerpt: The well-known Montgomery-Asberg Depression Rating Scale (MADRS) is employed to capture change in overall depressive severity. […] The primary clinical outcome is a MADRS subscale composed of items 7 and 8 from the MADRS that capture symptoms of reduced motivation, low energy, and loss of interest or pleasure, which are termed “MADRS”.
# The Temporal Experience of Pleasure Scale (TEPS) is designed to capture the separate reward processing components of anticipation and consumption, mapping the PVS constructs of AM/reward expectancy and IRRA/SSRA, respectively.
# The TEPS is an 18-item self-report measurement of anticipatory (10 items) and consummatory (eight items) components of anhedonia which consists of a series of statements that must be rated according to how accurate they are for the individual. The scale differentiates the role of anticipatory pleasure (‘wanting’) from consummatory pleasure (‘liking’). The TEPS-Anticipatory sub-scale is a validated measure of anticipation of reward (higher scores are better); the TEPS-Consummatory sub-scale is a validated measure of response to receipt of reward.
# Two additional instruments include the Specific Loss of Interest and Pleasure Scale (SLIPS) and the Anticipatory and Consummatory Interpersonal Pleasure Scale (ACIPS) which offer additional unique features, including specificity for anhedonia in the context of depression, and a focus on social aspects of reward.
# The Quick Inventory of Depressive Symptomatology-Self-Report (QIDS-SR) is a validated self-report of depression.
# The CGI-S/I will provide an overall clinician-determined summary measure that takes into account all available information, including knowledge of the subject's history, psychosocial circumstances, symptoms, behavior, and the impact of the symptoms on the subject's ability to function. The CGI evaluates the severity of psychopathology from 1 to 7. The CGI-S is a widely administered clinician rated global measure of overall illness severity. Subjects are rated on a 1-7 scale where 1 corresponds to “Normal, Not at All Ill”, 2 is “Borderline Mentally Ill”, the anchor for 3 is “Mildly Ill”, the anchor for 4 is “Moderately Ill”, 5 is “Markedly Ill”, 6 is “Severely Ill”, and 7 is “Among the Most Extremely Ill Patients”. It will be administered at all subject visits. The CGI-I is a widely administered clinician rated global measure of the degree of improvement from the initial assessment in subject overall illness severity. […] It will be administered at all subject visits.
# The study procedures were conducted at the Icahn School of Medicine at Mount Sinai in New York City and at Baylor College of Medicine in Houston, Tex. Participants were between the ages of 18 and 65 and meet DSM-V criteria for major depressive disorder (MDD) or persistent depressive disorder (PDD, a chronic form of depression), as assessed by a trained rater using the Structured Clinical Interview for Diagnostic and Statistical Manual of Mental Disorders-Fifth Edition Text Revision (DSM-V-TR) Axis I Disorders, Patient Edition (SCID-I/P).
# Following screening (Day −28 to Day −2), screening data was reviewed by the site PI to determine subject eligibility. Subjects who met all inclusion criteria and none of the exclusion criteria entered into the study. All eligible participants returned to the clinics to complete the baseline assessments and undergo randomization (Day 0, Baseline). Baseline assessments included clinical evaluations, the PRT and fMRI scanning (details below). […] Randomization was balanced by using randomly permuted blocks and stratified by center. A computer-generated randomization scheme developed by the coordinating site assigned a unique treatment code, which dictated the treatment assignment and matching study drug kit for each subject. The randomization list was provided by the research pharmacist at the coordinating site to the research pharmacist at the collaboration site.
# [5] = human, in vivo; cited from earlier work
# [6] = test system: patients diagnosed with an anxiety disorder; assay: Example 3: treatment of patients with an anxiety disorder; details: 900 mg oral (300 mg TID); example in present tense
# Chain of P-glycoprotein (P08183 whole entry): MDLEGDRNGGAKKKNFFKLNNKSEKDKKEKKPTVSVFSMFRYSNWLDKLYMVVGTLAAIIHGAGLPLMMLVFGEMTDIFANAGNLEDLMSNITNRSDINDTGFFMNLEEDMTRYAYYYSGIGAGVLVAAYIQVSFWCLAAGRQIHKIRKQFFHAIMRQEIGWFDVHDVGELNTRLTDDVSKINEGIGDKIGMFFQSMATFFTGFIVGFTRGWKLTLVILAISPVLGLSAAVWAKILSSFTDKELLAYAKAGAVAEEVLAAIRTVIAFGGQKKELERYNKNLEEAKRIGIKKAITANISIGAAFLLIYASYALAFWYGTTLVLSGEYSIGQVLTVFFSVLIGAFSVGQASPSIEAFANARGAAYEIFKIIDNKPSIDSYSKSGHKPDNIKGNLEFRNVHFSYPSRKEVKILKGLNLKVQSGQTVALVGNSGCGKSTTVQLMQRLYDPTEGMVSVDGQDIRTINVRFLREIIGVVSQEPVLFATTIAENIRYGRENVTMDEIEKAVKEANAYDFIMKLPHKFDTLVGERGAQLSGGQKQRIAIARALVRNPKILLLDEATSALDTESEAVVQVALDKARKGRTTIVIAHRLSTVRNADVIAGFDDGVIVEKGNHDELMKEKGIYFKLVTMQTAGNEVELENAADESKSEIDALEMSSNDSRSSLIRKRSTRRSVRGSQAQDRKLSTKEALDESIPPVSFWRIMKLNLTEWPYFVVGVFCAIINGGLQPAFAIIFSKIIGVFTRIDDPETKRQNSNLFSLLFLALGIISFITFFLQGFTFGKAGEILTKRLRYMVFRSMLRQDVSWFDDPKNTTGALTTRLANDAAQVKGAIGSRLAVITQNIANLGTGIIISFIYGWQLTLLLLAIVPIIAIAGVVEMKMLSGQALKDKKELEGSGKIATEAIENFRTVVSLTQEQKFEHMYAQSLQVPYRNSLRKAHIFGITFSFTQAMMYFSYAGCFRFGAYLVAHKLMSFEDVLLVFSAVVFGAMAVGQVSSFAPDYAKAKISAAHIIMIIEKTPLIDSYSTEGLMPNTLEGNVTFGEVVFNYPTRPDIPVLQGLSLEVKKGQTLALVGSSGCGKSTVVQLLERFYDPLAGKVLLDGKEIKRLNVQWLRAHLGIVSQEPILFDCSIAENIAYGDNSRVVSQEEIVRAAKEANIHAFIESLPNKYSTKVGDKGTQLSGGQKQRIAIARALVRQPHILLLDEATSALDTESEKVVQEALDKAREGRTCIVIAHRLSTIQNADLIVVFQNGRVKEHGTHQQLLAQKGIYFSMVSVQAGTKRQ
smiles,measurement,setting,value
"CCOC(=O)Nc1ccc(NCc2ccc(F)cc2)cc1N [ezogabine, N-[2-amino-4-(4-fluorobenzylamino)-phenyl] carbamic acid ethyl ester]",resilience: managing emotional health and wellness,[1],better at managing their emotional health and wellness
same,change in activation to reward anticipation within ventral striatum (fMRI),ventral striatum (VS),increased response to reward in the brain
same,difference in MADRS change (V5 vs V0): TRD versus non-TRD patients,"[2]; TRD ezogabine, non-TRD ezogabine and placebo groups, p=0.015",even larger benefit of treatment compared to placebo in the TRD patients than in the non-TRD patients
same,"onset of improvement in MADRS scores, ezogabine TRD group","[2]; TRD patients, change over time",significant improvement after a single treatment
same,effect of treatment on MADRS in patients with TRD,"[2]; TRD patients, ezogabine 900 mg/day vs placebo, ANOVA p=0.024",greatest improvement in their MADRS scores; also recorded: significant effect of treatment; also recorded: beneficial effects compared to placebo
same,P-glycoprotein active transport,P-glycoprotein,not subject to P-glycoprotein active transport
same,PTSD symptoms,[3],alleviated after treatment
same,"SHAPS scores, Estimate (ezogabine compared to placebo)","[4]; anhedonia, n=45, p<0.0001",−1.55
same,mean change from baseline in MADRS score,"[4]; at the primary outcome visit, ezogabine up to 900 mg/day oral",5.9±8.8 points
same,"SHAPS, Cohen's d","[4]; ezogabine compared to placebo, medium effect size",0.6
same,"MADRS, Cohen's d","[4]; ezogabine compared to placebo, n=45",0.7
same,"TEPS anticipatory subscale (TEPS-ant), Estimate","[4]; ezogabine compared to placebo, n=45, p=0.0008",1.33
same,"ACIPS, Estimate","[4]; ezogabine compared to placebo, p=0.0002",2.77
same,"SLIPS, Estimate","[4]; ezogabine compared to placebo, p=0.0009",−1.78
same,"TEPS consummatory subscale (TEPS-con), Estimate","[4]; ezogabine compared to placebo, p=0.05",0.64
same,effect on anhedonia symptoms,"[4]; human patients with depression and anhedonia, 300 mg TID oral, 5 weeks, SHAPS",successfully treated patients suffering from anhedonia; also recorded: reduction in anhedonia and related symptoms
same,median time to maximum plasma concentration (Tmax),[5],30 to 120 min
same,metabolism,[5],extensively metabolized primarily via glucuronidation and acetylation
same,symptoms of anxiety,[6],rapid and sustained alleviation of their symptoms of anxiety

# Reference: patent US20230015539A1, “METHOD OF TREATMENT WITH KCNQ CHANNEL OPENERS” (Icahn School of Medicine at Mount Sinai, priority 2019, published 2023)
